Laboratory results from patent publication US12415786B2, “Substituted 2-heteroarylaminobenzenes and the salts thereof and their use as herbicidal agents” (Bayer Aktiengesellschaft, priority 2019, dated 2025).

Assays:
Format in all cases: in vivo
[1] = system: Setaria viridis; test: Herbicidal pre-emergence action (greenhouse pots), SETVI; conditions: 1280 g/ha, visual scoring after about 3 weeks vs untreated controls
Summary of the method: (§1)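 Sandy loam, seeds covered with soil; WP or EC formulation sprayed on soil surface, 600 L/ha water + 0.5% additive; rate 1280 g/ha; greenhouse ~3 wk; visual % effect vs untreated control.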

[2] = system: Agrostis tenuis; test: Herbicidal early post-emergence action (96-well microtiter plates), AGSTE; conditions: 1900 g/ha, scored 9 to 12 days after treatment, 100% = plants have died, 0% = like untreated control plants
Summary of the method: (§2)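 Weed seeds grown in quartz sand in 96-well microtiter plates in a climate chamber and treated at the cotyledon stage, 5 to 7 days after sowing, with EC formulations at 2200 L/ha water and a rate equivalent to 1900 g/ha. Visual scoring after 9 to 12 days against untreated controls (0% = control, 100% = dead).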

[3] = system: Setaria viridis; test: Herbicidal post-emergence action (greenhouse pots), SETVI; conditions: 1280 g/ha, rated after about 3 weeks, 100% = plants have died, 0% = like untreated control plants
Text: (§3) In the examples and tables below, the following abbreviations are used: • Undesired Plants/Weeds: • ABUTH: Abutilon theophrasti • AGSTE: Agrostis tenuis • AMARE Amaranthus retroflexus • ECHCG: Echinochloa crus-galli • LOLRI: Lolium rigidum • MATIN: Matricaria inodora • POAAN: Poa annua • SETVI: Setaria viridis • STEME: Stellaria media A. Herbicidal Early Post-Emergence Action Seeds of mono- and dicotyledonous weed plants were placed in plastic pots in sandy loam soil (doubly sown with in each case one species of mono- or dicotyledonous weed plants per pot), covered with soil and cultivated in a greenhouse under controlled growth conditions. 2 to 3 weeks after sowing, the test plants were treated at the one-leaf stage. The compounds of the invention, formulated in the form of wettable powders (WP) or as emulsion concentrates (EC), were applied onto the green parts of the plants as aqueous suspension or emulsion with addition of 0.5% additive at a water application rate of 600 liters per hectare (converted). After the test plants had been kept in the greenhouse under optimum growth conditions for about 3 weeks, the activity of the preparations was rated visually in comparison to untreated controls. For example, 100% activity=the plants have died, 0% activity=like untreated control plants. Tables B1-B8 below show the effects of selected compounds of the general formula (I) according to Table 1 above on various harmful plants and an application rate corresponding to 1280 g/ha, which were obtained by the experimental procedure mentioned above.

[4] = system: Poa annua; test: Herbicidal early post-emergence action (96-well microtiter plates), POAAN; conditions: 1900 g/ha, scored 9 to 12 days after treatment, 100% = plants have died, 0% = like untreated control plants
Summary of the method: as §2

[5] = system: Stellaria media; test: Herbicidal pre-emergence action (greenhouse pots), STEME; conditions: 1280 g/ha, visual scoring after about 3 weeks vs untreated controls
Summary of the method: as §1

[6] = system: Amaranthus retroflexus; test: Herbicidal post-emergence action (greenhouse pots), AMARE; conditions: 1280 g/ha, visual rating about 3 weeks after treatment vs untreated controls
Summary of the method: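 Activity is a visual percentage score (0% = like untreated controls, 100% = plants died) taken about 3 weeks after treatment. Plants grown in sandy loam under greenhouse conditions received 1280 g/ha onto green parts at the one-leaf stage, formulated as WP or EC with 0.5% additive.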

[7] = system: Lolium rigidum; test: Herbicidal pre-emergence action (greenhouse pots), LOLRI; conditions: 1280 g/ha, visual scoring after about 3 weeks vs untreated controls
Text: (§4) In the examples and tables below, the following abbreviations are used: • Undesired Plants/Weeds: • ABUTH: Abutilon theophrasti • AGSTE: Agrostis tenuis • AMARE Amaranthus retroflexus • ECHCG: Echinochloa crus-galli • LOLRI: Lolium rigidum • MATIN: Matricaria inodora • POAAN: Poa annua • SETVI: Setaria viridis • STEME: Stellaria media A. Herbicidal Early Post-Emergence Action Seeds of mono- and dicotyledonous weed plants were placed in plastic pots in sandy loam soil (doubly sown with one species each of mono- or dicotyledonous weed plants per pot) and covered with soil. The compounds of the invention, formulated in the form of wettable powders (WP) or as emulsion concentrates (EC), were then applied onto the surface of the covering soil as aqueous suspension or emulsion with addition of 0.5% additive at a water application rate of 600 liters per hectare (converted). After the treatment, the pots were placed in a greenhouse and kept under good growth conditions for the test plants. After about 3 weeks, the effect of the preparations was scored visually in comparison with untreated controls as percentages. For example, 100% activity=the plants have died, 0% activity=like untreated control plants. Tables C1-C8 below show the effects of selected compounds of the general formula (I) according to Table 1 above on various harmful plants and an application rate corresponding to 1280 g/ha, which were obtained by the experimental procedure mentioned above.

[8] = system: Poa annua; test: Herbicidal pre-emergence action (greenhouse pots), POAAN; conditions: 1280 g/ha, visual scoring after about 3 weeks vs untreated controls
Summary of the method: as §1

[9] = system: Stellaria media; test: Herbicidal post-emergence action (greenhouse pots), STEME; conditions: 1280 g/ha, visual rating about 3 weeks after treatment vs untreated controls
Text: as §3

[10] = system: Amaranthus retroflexus; test: Herbicidal pre-emergence action (greenhouse pots), AMARE; conditions: 1280 g/ha, visual scoring after about 3 weeks vs untreated controls
Summary of the method: as §1

[11] = system: Matricaria inodora; test: Herbicidal pre-emergence action (greenhouse pots), MATIN; conditions: 1280 g/ha, visual scoring after about 3 weeks vs untreated controls
Text: as §4

[12] = system: Abutilon theophrasti; test: Herbicidal pre-emergence action (greenhouse pots), ABUTH; conditions: 1280 g/ha, visual scoring after about 3 weeks vs untreated controls
Text: as §4

[13] = system: Echinochloa crus-galli; test: Herbicidal pre-emergence action (greenhouse pots), ECHCG; conditions: 1280 g/ha, visual scoring after about 3 weeks vs untreated controls
Text: as §4

[14] = system: Poa annua; test: Herbicidal post-emergence action (greenhouse pots), POAAN; conditions: 1280 g/ha, visual rating about 3 weeks after treatment vs untreated controls
Text: as §3

[15] = system: Abutilon theophrasti; test: Herbicidal post-emergence action (greenhouse pots), ABUTH; conditions: 1280 g/ha, visual rating about 3 weeks after treatment vs untreated controls
Text: as §3

[16] = system: Echinochloa crus-galli; test: Herbicidal post-emergence action (greenhouse pots), ECHCG; conditions: 1280 g/ha, rated after about 3 weeks, 100% = plants have died, 0% = like untreated control plants
Text: as §3

Compound | herbicidal activity SETVI [1] | AGSTE (herbicidal activity, scored visually in comparison to untreated controls) [2] | SETVI (herbicidal activity, rated visually in comparison to untreated controls) [3] | POAAN (herbicidal activity, scored visually in comparison to untreated controls) [4] | herbicidal activity STEME [5] | herbicidal activity AMARE [6] | herbicidal activity LOLRI [7] | herbicidal activity POAAN [8] | herbicidal activity STEME [9] | herbicidal activity AMARE [10] | herbicidal activity MATIN [11] | herbicidal activity ABUTH [12] | herbicidal activity ECHCG [13] | herbicidal activity POAAN [14] | herbicidal activity ABUTH [15] | ECHCG (herbicidal activity, rated visually in comparison to untreated controls) [16]
N#Cc1ccc(Oc2c(C#N)cccc2Nc2ncc(Cl)cn2)cc1 [Example 1-299] | 100% | 80% | 90% | 100% | 100% | 100% | 90% | 100% | 100% | 100% | – | – | – | – | – | –
N#Cc1ccc(Oc2c(C#N)cccc2Nc2ncccn2)cc1 [Example 1-261] | 100% | 80% | – | 80% | 100% | 100% | – | 100% | – | 100% | 100% | 100% | 100% | – | – | –
N#Cc1cccc(Nc2ncc(F)cn2)c1Oc1ccc(C(F)(F)F)cc1 [Example 1-279] | 100% | 80% | – | 100% | 100% | 100% | 90% | 100% | 100% | 100% | 90% | – | – | 100% | – | –
N#Cc1cccc(Nc2ncc(Cl)cn2)c1Oc1ccc(F)c(F)c1 [Example 1-291] | 100% | 100% | 100% | 100% | 100% | 100% | 100% | 100% | 100% | 100% | 100% | – | 90% | 100% | 100% | 100%
N#Cc1cccc(Nc2ncccn2)c1Oc1ccc(F)c(F)c1 [Example 1-253] | 100% | 100% | 90% | 100% | 100% | 100% | 100% | 100% | 100% | 100% | 100% | – | 100% | – | 100% | 100%
N#Cc1cccc(Nc2ncc(Cl)cn2)c1Oc1ccc(Cl)nc1 [Example 3-56] | 100% | 100% | 100% | 100% | 100% | 100% | – | 100% | 100% | 100% | 100% | 100% | 100% | 100% | 100% | 100%
N#Cc1cccc(Nc2ncc(F)cn2)c1Oc1cccc(Cl)c1 [Example 1-268] | – | 100% | – | 80% | – | 90% | – | – | – | 90% | – | 90% | – | – | – | –
N#Cc1cccc(Nc2ncc(F)cn2)c1Oc1cccc(C(F)(F)F)c1 [Example 1-278] | 100% | 100% | – | 100% | 100% | 100% | 100% | 100% | 100% | 100% | 100% | – | – | – | 90% | 90%
N#Cc1cccc(Nc2ncc(Cl)cn2)c1Oc1ccc(Cl)cc1F [Example 1-294] | 100% | 80% | – | 100% | 100% | 100% | – | 100% | 100% | 100% | – | 90% | 90% | 100% | – | –
Cc1cnc(Nc2cccc(C#N)c2Oc2ccc(F)cc2)nc1 [Example 1-308] | 100% | 100% | 100% | 100% | 100% | 100% | – | 100% | 100% | 100% | 100% | 100% | 90% | 100% | 100% | 100%
N#Cc1ccc(Oc2c(C#N)cccc2Nc2ncc(F)cn2)cc1 [Example 1-280] | 100% | 100% | – | 100% | 100% | 100% | – | 100% | 100% | 100% | 100% | 100% | 100% | – | – | –
